# Assay results: the NIST ThermoML archive (doi:10.1016/j.fluid.2016.01.043)
# ± gives the expanded uncertainty stated by the source.
# Key:
# [1] = mn = molality of the nth substance listed, in mol/kg; conditions: 101 kPa, Liquid; for electrical conductivity: Frequency=0 MHz, Direct current cell with electrodes; for viscosity: Cone and plate viscometry
# [2] = for viscosity / electrical conductivity: 101 kPa, Liquid; for viscosity: Cone and plate viscometry; for electrical conductivity: Frequency=0 MHz, Direct current cell with electrodes
structure (smiles),measurement,setting,value
[F][Ta]([F])([F])([F])[F] [Tantalum fluoride] + CCCC[N+]1(C)CCCC1.O=S(=O)([N-]S(=O)(=O)C(F)(F)F)C(F)(F)F,electrical conductivity,"[1]; 293.15 K, m1 = 0.08",0.24 ± 0.01 S/m
same,electrical conductivity,"[1]; 293.15 K, m1 = 0.17",0.23 ± 0.01 S/m
same,electrical conductivity,"[1]; 293.15 K, m1 = 0.35",0.23 ± 0.01 S/m
same,electrical conductivity,"[1]; 293.15 K, m1 = 0.7",0.22 ± 0.01 S/m
same,electrical conductivity,"[1]; 293.15 K, m1 = 1.41",0.22 ± 0.01 S/m
same,viscosity,"[1]; 303.15 K, m1 = 0.08",71 ± 35 mPa·s
same,viscosity,"[1]; 303.15 K, m1 = 0.17",73 ± 36 mPa·s
same,viscosity,"[1]; 303.15 K, m1 = 0.35",77 ± 38 mPa·s
same,viscosity,"[1]; 303.15 K, m1 = 0.7",81 ± 40 mPa·s
same,viscosity,"[1]; 303.15 K, m1 = 1.41",87 ± 43 mPa·s
same,viscosity,"[1]; 312.17 K, m1 = 0.08",51 ± 25 mPa·s
same,viscosity,"[1]; 312.17 K, m1 = 0.17",52 mPa·s
same,viscosity,"[1]; 312.17 K, m1 = 0.35",56 mPa·s
same,viscosity,"[1]; 312.17 K, m1 = 0.7",59 ± 29 mPa·s
same,viscosity,"[1]; 312.17 K, m1 = 1.41",62 mPa·s
same,viscosity,"[1]; 321.22 K, m1 = 0.08",38 mPa·s
same,viscosity,"[1]; 321.22 K, m1 = 0.17",40 mPa·s
same,viscosity,"[1]; 321.22 K, m1 = 0.35",41 ± 20 mPa·s
same,viscosity,"[1]; 321.22 K, m1 = 0.7",44 mPa·s
same,viscosity,"[1]; 321.22 K, m1 = 1.41",47 ± 23 mPa·s
same,viscosity,"[1]; 339.37 K, m1 = 0.08",23 ± 11 mPa·s
same,viscosity,"[1]; 339.37 K, m1 = 0.17",24 mPa·s
same,viscosity,"[1]; 339.37 K, m1 = 0.35",25 ± 12 mPa·s
same,viscosity,"[1]; 339.37 K, m1 = 0.7",26 mPa·s
same,viscosity,"[1]; 339.37 K, m1 = 1.41",28 mPa·s
same,viscosity,"[1]; 367.49 K, m1 = 0.08",12 mPa·s
same,viscosity,"[1]; 367.49 K, m1 = 0.17",12 mPa·s
same,viscosity,"[1]; 367.49 K, m1 = 0.35",13 ± 6 mPa·s
same,viscosity,"[1]; 367.49 K, m1 = 0.7",14 mPa·s
same,viscosity,"[1]; 367.49 K, m1 = 1.41",15 ± 7 mPa·s
same,electrical conductivity,"[1]; 373.15 K, m1 = 0.08",1.73 ± 0.07 S/m
same,electrical conductivity,"[1]; 373.15 K, m1 = 0.17",1.66 ± 0.07 S/m
same,electrical conductivity,"[1]; 373.15 K, m1 = 0.35",1.65 ± 0.07 S/m
same,electrical conductivity,"[1]; 373.15 K, m1 = 0.7",1.56 ± 0.06 S/m
same,electrical conductivity,"[1]; 373.15 K, m1 = 1.41",1.37 ± 0.06 S/m
same,viscosity,"[1]; 403.15 K, m1 = 0.08",7 mPa·s
same,viscosity,"[1]; 403.15 K, m1 = 0.17",7 mPa·s
same,viscosity,"[1]; 403.15 K, m1 = 0.35",7 mPa·s
same,viscosity,"[1]; 403.15 K, m1 = 0.7",8 mPa·s
same,viscosity,"[1]; 403.15 K, m1 = 1.41",8 mPa·s
same,electrical conductivity,"[1]; 413.15 K, m1 = 0.08",2.94 ± 0.12 S/m
same,electrical conductivity,"[1]; 413.15 K, m1 = 0.17",2.81 ± 0.11 S/m
same,electrical conductivity,"[1]; 413.15 K, m1 = 0.35",2.78 ± 0.11 S/m
same,electrical conductivity,"[1]; 413.15 K, m1 = 0.7",2.66 ± 0.11 S/m
same,electrical conductivity,"[1]; 413.15 K, m1 = 1.41",2.27 ± 0.09 S/m
same,electrical conductivity,"[1]; 453.15 K, m1 = 0.08",4.23 ± 0.17 S/m
same,electrical conductivity,"[1]; 453.15 K, m1 = 0.17",4.16 ± 0.17 S/m
same,electrical conductivity,"[1]; 453.15 K, m1 = 0.35",4.13 ± 0.17 S/m
same,electrical conductivity,"[1]; 453.15 K, m1 = 0.7",3.84 ± 0.15 S/m
same,electrical conductivity,"[1]; 453.15 K, m1 = 1.41",3.44 ± 0.14 S/m
CCCC[N+]1(C)CCCC1.O=S(=O)([N-]S(=O)(=O)C(F)(F)F)C(F)(F)F + [F][Ta]([F])([F])([F])[F],viscosity,"[1]; 293.15 K, m2 = 0",102 mPa·s
same,electrical conductivity,"[1]; 293.15 K, m2 = 0",0.25 ± 0.01 S/m
same,viscosity,"[1]; 303.15 K, m2 = 0",67 ± 33 mPa·s
same,viscosity,"[1]; 312.15 K, m2 = 0",47 ± 23 mPa·s
same,viscosity,"[1]; 312.17 K, m2 = 0",47 ± 23 mPa·s
same,electrical conductivity,"[1]; 313.15 K, m2 = 0",0.47 ± 0.02 S/m
same,viscosity,"[1]; 321.22 K, m2 = 0",36 mPa·s
same,electrical conductivity,"[1]; 323.15 K, m2 = 0",0.63 ± 0.03 S/m
same,viscosity,"[1]; 330.29 K, m2 = 0",28 mPa·s
same,electrical conductivity,"[1]; 333.15 K, m2 = 0",0.8 ± 0.03 S/m
same,viscosity,"[1]; 339.37 K, m2 = 0",22 mPa·s
same,electrical conductivity,"[1]; 343.15 K, m2 = 0",1.01 ± 0.04 S/m
same,viscosity,"[1]; 348.44 K, m2 = 0",17 ± 8 mPa·s
same,electrical conductivity,"[1]; 353.15 K, m2 = 0",1.21 ± 0.05 S/m
same,viscosity,"[1]; 357.52 K, m2 = 0",14 mPa·s
same,viscosity,"[1]; 367.49 K, m2 = 0",11 ± 5 mPa·s
same,electrical conductivity,"[1]; 373.15 K, m2 = 0",1.74 ± 0.07 S/m
same,viscosity,"[1]; 377.46 K, m2 = 0",10 mPa·s
same,viscosity,"[1]; 386.53 K, m2 = 0",8 mPa·s
same,electrical conductivity,"[1]; 393.15 K, m2 = 0",2.3 ± 0.09 S/m
same,viscosity,"[1]; 394.73 K, m2 = 0",7 mPa·s
same,viscosity,"[1]; 403.15 K, m2 = 0",6 mPa·s
same,electrical conductivity,"[1]; 413.15 K, m2 = 0",2.92 ± 0.12 S/m
same,electrical conductivity,"[1]; 433.15 K, m2 = 0",3.61 ± 0.14 S/m
same,electrical conductivity,"[1]; 453.15 K, m2 = 0",4.33 ± 0.18 S/m
CCCC[N+]1(C)CCCC1.O=S(=O)([N-]S(=O)(=O)C(F)(F)F)C(F)(F)F,viscosity,[2]; 293.15 K,102 ± 4 mPa·s
same,electrical conductivity,[2]; 293.15 K,0.25 ± 0.01 S/m
same,viscosity,[2]; 303.15 K,67 ± 3 mPa·s
same,viscosity,[2]; 312.15 K,47 ± 2 mPa·s
same,viscosity,[2]; 312.17 K,47 ± 2 mPa·s
same,electrical conductivity,[2]; 313.15 K,0.47 ± 0.02 S/m
same,viscosity,[2]; 321.22 K,36 ± 2 mPa·s
same,electrical conductivity,[2]; 323.15 K,0.63 ± 0.03 S/m
same,viscosity,[2]; 330.29 K,28 ± 1 mPa·s
same,electrical conductivity,[2]; 333.15 K,0.8 ± 0.03 S/m
same,viscosity,[2]; 339.37 K,22 ± 1 mPa·s
same,electrical conductivity,[2]; 343.15 K,1.01 ± 0.04 S/m
same,viscosity,[2]; 348.44 K,17 ± 1 mPa·s
same,electrical conductivity,[2]; 353.15 K,1.21 ± 0.05 S/m
same,viscosity,[2]; 357.52 K,14 ± 1 mPa·s
same,viscosity,[2]; 367.49 K,11 ± 1 mPa·s
same,electrical conductivity,[2]; 373.15 K,1.74 ± 0.07 S/m
same,viscosity,[2]; 377.46 K,10 ± 1 mPa·s
same,viscosity,[2]; 386.53 K,8 ± 1 mPa·s
same,electrical conductivity,[2]; 393.15 K,2.3 ± 0.09 S/m
same,viscosity,[2]; 394.73 K,7 ± 1 mPa·s
same,viscosity,[2]; 403.15 K,6 ± 1 mPa·s
same,electrical conductivity,[2]; 413.15 K,2.92 ± 0.12 S/m
same,electrical conductivity,[2]; 433.15 K,3.61 ± 0.14 S/m
same,electrical conductivity,[2]; 453.15 K,4.33 ± 0.17 S/m
same,Normal melting temperature,"[2]; Crystal, DTA",-22 ± 1 °C
